Experimental data from PubChem BioAssay (NCI).
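Briefly, cells in 96-well plates were exposed to five compound concentrations for 48 h, and endpoints were estimated by linear interpolation. TGI marks complete inhibition of growth.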

Columns and labels:
Assay in all cases: DTP human tumour cell line panel, 48 h
[1] = system: MALME-3M melanoma
[2] = system: MDA-MB-435
[3] = system: OVCAR-4 ovarian
[4] = system: COLO 205 colon
[5] = system: PC-3 prostate
[6] = system: T-47D breast
[7] = system: CAKI-1 renal
[8] = system: A498 renal
[9] = system: LOX IMVI melanoma
[10] = system: NCI-H522 lung
[11] = system: OVCAR-3 ovarian
[12] = system: SN12C renal
[13] = system: DU-145 prostate
[14] = system: OVCAR-8 ovarian
[15] = system: NCI-H460 lung
[16] = system: HCC-2998 colon
[17] = system: MOLT-4 leukemia
[18] = system: SF-295 CNS
[19] = system: SK-MEL-5 melanoma
[20] = system: UO-31 renal
[21] = system: HOP-92 NSCLC
[22] = system: SNB-19 CNS
[23] = system: IGROV1 ovarian
[24] = system: SR leukemia
[25] = system: HOP-62 NSCLC
[26] = system: UACC-62 melanoma
[27] = system: U251 CNS
[28] = system: SW-620 colon
[29] = system: NCI-H23 lung
[30] = system: HCT-15 colon
[31] = system: K-562 leukemia
[32] = system: SK-MEL-28 melanoma
[33] = system: EKVX NSCLC
[34] = system: RPMI-8226 leukemia
[35] = system: ACHN renal
[36] = system: UACC-257 melanoma
[37] = system: SF-268 CNS
[38] = system: M14 melanoma
[39] = system: HCT-116 colon
[40] = system: SK-MEL-2 melanoma
[41] = system: KM12 colon
[42] = system: A549 NSCLC
[43] = system: TK-10 renal
[44] = system: MCF7 breast
[45] = system: BT-549 breast
[46] = system: MDA-N
[47] = system: SK-OV-3 ovarian
[48] = system: 786-0 renal
[49] = system: NCI/ADR-RES ovarian
[50] = system: OVCAR-5 ovarian
[51] = system: HS 578T breast
[52] = system: SNB-75 CNS
[53] = system: MDA-MB-231 breast
[54] = system: CCRF-CEM leukemia
[55] = system: RXF 393 renal
[56] = system: HL-60(TB) leukemia
[57] = system: HT29 colon
[58] = system: NCI-H226 lung
[59] = system: SF-539 CNS

CC(C)=CCC/C(C)=C/CC/C(C)=C/CC/C(C=O)=C/CC/C(C)=C\CC/C(C)=C/CC/C(C)=C/CC/C(C)=C/CC1=CC(=O)C=CC1=O
TGI [1]: 66.3 µM
TGI [2]: > 100 µM
TGI [3]: > 100 µM
TGI [4]: > 100 µM
TGI [5]: > 100 µM
TGI [6]: 69.4 µM
TGI [7]: 74.3 µM
TGI [8]: > 100 µM
TGI [9]: > 100 µM
TGI [10]: 32.3 µM
TGI [11]: > 100 µM
TGI [12]: > 100 µM
TGI [13]: > 100 µM
TGI [14]: > 100 µM
TGI [15]: > 100 µM
TGI [16]: > 100 µM
TGI [17]: > 100 µM
TGI [18]: > 100 µM
TGI [19]: > 100 µM
TGI [20]: > 100 µM
TGI [21]: > 100 µM
TGI [22]: > 100 µM
TGI [23]: > 100 µM
TGI [24]: > 100 µM
TGI [25]: > 100 µM
TGI [26]: 53.1 µM
TGI [27]: > 100 µM
TGI [28]: > 100 µM
TGI [29]: > 100 µM
TGI [30]: > 100 µM
TGI [31]: > 100 µM
TGI [32]: > 100 µM
TGI [33]: > 100 µM
TGI [34]: > 100 µM
TGI [35]: > 100 µM
TGI [36]: > 100 µM
TGI [37]: > 100 µM
TGI [38]: > 100 µM
TGI [39]: > 100 µM
TGI [40]: > 100 µM
TGI [41]: > 100 µM
TGI [42]: > 100 µM
TGI [43]: > 100 µM
TGI [44]: > 100 µM
TGI [45]: > 100 µM
TGI [46]: > 100 µM
TGI [47]: > 100 µM
TGI [48]: > 100 µM
TGI [49]: > 100 µM
TGI [50]: > 100 µM
TGI [51]: > 100 µM
TGI [52]: 96.1 µM
TGI [53]: > 100 µM
TGI [54]: > 100 µM

CC1(CC(=O)OC(C#C[Si](C)(C)C)Cc2ccccc2)OCCO1 (stereo unspecified)
TGI [1]: > 100 µM
TGI [2]: > 100 µM
TGI [3]: > 100 µM
TGI [4]: > 100 µM
TGI [5]: > 100 µM
TGI [6]: > 100 µM
TGI [7]: > 100 µM
TGI [8]: > 100 µM
TGI [9]: > 100 µM
TGI [10]: > 100 µM
TGI [12]: > 100 µM
TGI [55]: > 100 µM
TGI [13]: > 100 µM
TGI [14]: > 100 µM
TGI [17]: > 100 µM
TGI [18]: > 100 µM
TGI [19]: > 100 µM
TGI [20]: > 100 µM
TGI [22]: > 100 µM
TGI [23]: > 100 µM
TGI [25]: > 100 µM
TGI [26]: > 100 µM
TGI [27]: > 100 µM
TGI [28]: > 100 µM
TGI [29]: > 100 µM
TGI [30]: > 100 µM
TGI [32]: > 100 µM
TGI [33]: > 100 µM
TGI [35]: > 100 µM
TGI [36]: > 100 µM
TGI [37]: > 100 µM
TGI [38]: > 100 µM
TGI [39]: > 100 µM
TGI [40]: > 100 µM
TGI [41]: > 100 µM
TGI [56]: > 100 µM
TGI [42]: > 100 µM
TGI [43]: > 100 µM
TGI [44]: > 100 µM
TGI [45]: > 100 µM
TGI [57]: > 100 µM
TGI [46]: > 100 µM
TGI [47]: > 100 µM
TGI [48]: > 100 µM
TGI [49]: > 100 µM
TGI [58]: > 100 µM
TGI [50]: > 100 µM
TGI [51]: > 100 µM
TGI [52]: > 100 µM
TGI [53]: > 100 µM
TGI [59]: > 100 µM
TGI [54]: > 100 µM

C=C1C(=O)O[C@H]2[C@H]3O[C@@H](C[C@@H]12)[C@](C)(O)CCCC(C)=CCC[C@H]3C
TGI [2]: 15.8 µM
TGI [3]: 39 µM
TGI [4]: 21 µM
TGI [5]: 25.7 µM
TGI [6]: 44.6 µM
TGI [7]: 28.5 µM
TGI [9]: 48.2 µM
TGI [10]: 17.3 µM
TGI [11]: 27.5 µM
TGI [12]: 71.4 µM
TGI [55]: 20.3 µM
TGI [13]: 39.6 µM
TGI [14]: 21 µM
TGI [15]: 30.5 µM
TGI [16]: 23.6 µM
TGI [17]: 8.09 µM
TGI [18]: 31.7 µM
TGI [19]: 31.1 µM
TGI [20]: 23.5 µM
TGI [21]: 8.45 µM
TGI [22]: 32.4 µM
TGI [23]: 5.05 µM
TGI [24]: > 100 µM
TGI [25]: 31.3 µM
TGI [26]: 22.8 µM
TGI [27]: 29.8 µM
TGI [28]: 23 µM
TGI [29]: 35.3 µM
TGI [30]: 84.9 µM
TGI [31]: 64.7 µM
TGI [32]: 25.9 µM
TGI [33]: 22.4 µM
TGI [34]: 17.4 µM
TGI [35]: 21.7 µM
TGI [36]: 22.7 µM
TGI [37]: 20.7 µM
TGI [39]: 31.1 µM
TGI [40]: 28.7 µM
TGI [41]: 27.1 µM
TGI [42]: 33.6 µM
TGI [43]: 14.6 µM
TGI [44]: 29.8 µM
TGI [45]: 3.07 µM
TGI [57]: 26.7 µM
TGI [46]: 75.8 µM
TGI [47]: 35.3 µM
TGI [48]: > 100 µM
TGI [49]: 22.7 µM
TGI [58]: 36.9 µM
TGI [50]: 31.1 µM
TGI [51]: 29.2 µM
TGI [52]: 22.3 µM
TGI [53]: 35.8 µM
TGI [59]: 26.9 µM
TGI [54]: 3.24 µM
